Measured values reported in PubChem BioAssay AID1981 (Southern Research Specialized Biocontainment Screening …, 2009).

What follows are molecules tested on S. Typhimurium PhoP-promoter GFP reporter counterscreen, fluorescence, 4 h (assay: S. Typhimurium GFP fluorescence dose response in modified counterscreen for PhoP regulon inhibitor project (AID 1981)).

| SMILES | IC50 [µM] |
| --- | --- |
| CCOc1cccc(CNc2ccc(O)cc2)c1OCc1ccc(Cl)cc1Cl | 125 |
| CCn1cc(C(=O)O)c(=O)c2cc(F)c(N3CCN(C(=S)Nc4ccccc4OC)CC3)cc21 | 22 |
| CC(=O)N1CCN(c2cc3c(cc2F)c(=O)c(C(=O)O)cn3C2CC2)CC1 | 21.6 |
| CNC[C@H](Cc1ccccc1)NC[C@@H](Cc1cccc2ccccc12)NCCc1ccc(C)cc1 | 29.9 |
| CCn1cc(C(=O)NCCN(C)C)c(=O)c2cc(F)c(N3CCN(C)CC3)cc21 | 123 |
| Cc1ccc(S(=O)(=O)Nc2cc(Cl)c(O)c3ncccc23)cc1 | 37.5 |
| O=S1(=O)CCC(NC(=S)SCCOc2ccccc2)C1 (stereo unspecified) | 86.5 |
| CCN1CCN(C(c2ccc(C(F)(F)F)cc2)c2ccc3cccnc3c2O)CC1 (stereo unspecified) | 46.1 |
| O=C(N/N=C/c1sc2ccccc2c1O)c1cccc2ccccc12 | 40 |
| COc1nsnc1NS(=O)(=O)c1ccc(NC(=S)NC(=O)c2cccnc2)cc1 | 34.4 |
| Oc1cc(Cl)ccc1Oc1ccc(Cl)cc1Cl | 0.68 |
| Cc1cc(C(=O)N/N=C/c2ccc([N+](=O)[O-])s2)n[nH]1 | 36.7 |
| CC[C@@H](C)[C@H](CNC)NC[C@@H](Cc1cccc2ccccc12)NCCc1cccc(C(F)(F)F)c1 | 39.9 |
| Oc1ccc(CNc2ccccc2F)c2cccnc12 | 76.5 |
| CO[C@H]1C=CO[C@@]2(C)Oc3c(C)c(O)c4c(O)c(c(C=NN5CCN(C)CC5)c(O)c4c3C2=O)NC(=O)C(C)=CC=C[C@H](C)[C@H](O)[C@@H](C)[C@@H](O)[C@@H](C)[C@H](OC(C)=O)[C@@H]1C | 11.2 |
| COc1ccc(/C=N/Nc2cc(C)nc3ccccc23)cc1 | 84.8 |
| O=C1C(SCCO)=C(SCCO)C(=O)c2ccccc21 | 64.9 |
| O=C(NC1CCCC1)c1ccc(Cl)s1 | 86.3 |
| NC1CCN(c2nc3c(cc2F)c(=O)c(C(=O)O)cn3-c2ccc(F)cc2F)C1 (stereo unspecified) | 0.53 |
| CCCCCCCCCCOC(=O)Cn1c(COc2cccc(C)c2)[n+](C)c2ccccc21 | 28.5 |
| NC1CCN(c2c(F)cc3c(=O)c(C(=O)O)cn(C4CC4)c3c2Cl)C1 (stereo unspecified) | < 0.23 |

| SMILES | IC50 [µM] |
| --- | --- |
| OCCN1CCN(Cc2cc(Cl)c3cccnc3c2O)CC1 | 104 |
| CCc1ccc(NC(=O)C[n+]2cc(-c3ccc(C)cc3)n3c2CCC3)cc1 | 146 |
| O=C(N/N=C/c1cc(Cl)ccc1O)c1cccnc1 | 35 |
| Cc1cc(C(=O)N/N=C/c2cc(Br)cc([N+](=O)[O-])c2O)c2ccccc2n1 | 93.5 |
| CCC(C)N1CCC2(CC1)N=c1c(c3c4c5c(C)c(O)c3c(O)c1=NC(=O)C(C)=CC=C[C@H](C)[C@H](O)[C@@H](C)[C@@H](O)[C@@H](C)[C@H](OC(C)=O)[C@H](C)[C@@H](OC)C=CO[C@@](C)(O5)C4=O)N2 (stereo partly specified) | 3.03 |
| CCn1cc(C(=O)O)c(=O)c2cc(F)c(N3CCN(C(=S)NC(=O)c4ccc(F)cc4)CC3)cc21 | 53.4 |
| Oc1c(C(Nc2cccc(C(F)(F)F)c2)c2cccnc2)ccc2cccnc12 (stereo unspecified) | 56.2 |
| Oc1c(C(Nc2ccccn2)c2ccccn2)ccc2cccnc12 (stereo unspecified) | 55.2 |
| CCc1ccc(CNc2ccc(O)cc2)cc1 | 94.9 |
| O=[N+]([O-])c1ccc(N/N=C/c2ccc[nH]2)cc1 | 141 |
| NC1=NC[C@@H](Cc2ccc(O)cc2)N1CCCCC1CCCCC1 | 40.2 |
| CCCCCCCCCCCCCCCC[n+]1cccc2ccccc21 | 19.5 |
| Oc1c(C(Nc2nc3ccccc3s2)c2ccco2)ccc2cccnc12 (stereo unspecified) | 57 |
| CC1COc2c(N3CCN(C)CC3)c(F)cc3c(=O)c(C(=O)O)cn1c23 (stereo unspecified) | 0.56 |
| Oc1cccc2ccc(Nc3ccccn3)nc12 | 14.5 |
| NC1=NC[C@H](Cc2ccc(O)cc2)N1CCC12CC3CC(CC(C3)C1)C2 | 78.9 |
| CC(C)CCNCC(O)CON=C1c2ccccc2-c2ccccc21 (stereo unspecified) | 136 |
| O=C(N/N=C\c1cccc([N+](=O)[O-])c1O)C1COc2ccccc2O1 (stereo unspecified) | 96 |
| COc1c(N2CCNC(C)C2)c(F)cc2c(=O)c(C(=O)O)cn(C3CC3)c12 (stereo unspecified) | 0.44 |
| O=C(O)C1Nc2c(O)cccc2C2C=CCC12 (stereo unspecified) | 64.9 |
| CCC(C)(C)c1ccc(OCCCC[n+]2ccccc2)c(C(C)(C)CC)c1 | 63.4 |

| SMILES | IC50 [µM] |
| --- | --- |
| CCOc1ccc(Nc2c3ccccc3nc3ccccc23)cc1 | 94 |
| CC(=O)NC(c1ccc(C)cc1)c1cc([N+](=O)[O-])c2cccnc2c1O (stereo unspecified) | 37.9 |
| Nc1ccc(Nc2ccccc2)cc1 | 92.1 |
| Nc1c(Cl)ncnc1N/N=C/c1ccccn1 | 32.2 |
| Oc1ccc(CN2CCCc3ccccc32)c2cccnc12 | 20 |
| CCCCCC(CC(=O)NO)C(=O)NC(C(=O)N1CCCC1CO)C(C)C (stereo unspecified) | 33.3 |
| Nc1cc(Cl)c2nonc2c1[N+](=O)[O-] | 39.8 |
| Nc1nc2ccccc2n1Cc1ccc(Cl)c(Cl)c1 | 85.6 |
| COc1c(N2CCN(C(=S)NCc3ccccc3)C(C)C2)c(F)cc2c(=O)c(C(=O)O)cn(C3CC3)c12 (stereo unspecified) | 31.9 |
| Clc1ccc(OCCCNCc2ccccc2)c(Br)c1 | 71.8 |
| C/C(=N\NC(=O)c1cc2ccccc2cc1O)c1ccccn1 | 31.9 |
| Nc1ccc2c(c1)C(=O)C(=O)c1ccccc1-2 | 10.9 |
| Cc1ccc(Nc2nc(NCc3ccco3)c3ccccc3n2)cc1 | 23.6 |
| Oc1c(I)cc(Cl)c2cccnc12 | 70.7 |
| Nc1[nH]c(=O)ncc1F | 10.6 |
| NC1=NC2(CCCCC2)N=C(Nc2ccc(Br)cc2)N1 | 138 |
| COc1cc(Cc2cc(N)nc(N)n2)cc(OC)c1OC | 1 |
| Cc1ccccc1NC(=O)CCC(=O)N/N=C/c1cc([N+](=O)[O-])ccc1O | 138 |
| CS(=O)(=O)c1ccc([C@@H](O)[C@@H](CO)NC(=O)C(Cl)Cl)cc1 | 63.7 |
| Cc1cc2nc3ccc(=[N+](C)C)cc-3sc2cc1N | 32.4 |
| Cc1ccnc(NC(c2cccnc2)c2ccc3cccnc3c2O)c1 (stereo unspecified) | 76.4 |

| SMILES | IC50 [µM] |
| --- | --- |
| NCCc1c(-c2ccccc2)n(-c2ccccc2)c2ccccc12 | 83.7 |
| CCn1cc(C(=O)O)c(=O)c2cc(F)c(N3CCN(C)CC3)cc21 | 1.46 |
| CN(Cc1ccccc1)CC(O)COc1ccc(CNCc2ccc(Cl)s2)cc1 (stereo unspecified) | 117 |
| O=C(Nc1nnc(-c2cccs2)o1)c1cccc(Oc2ccccc2)c1 | 54.6 |
| O=[N+]([O-])c1cc(O)c2ncccc2c1 | 15.8 |
| Oc1c(CN2CCc3ccccc3C2)cc(Cl)c2cccnc12 | 7.36 |
| CCCCCN=C(N)N/N=C/c1c[nH]c2ccc(OC)cc12 | 40.4 |
| CCCCCCCCn1c2c(c(=N)c3ccccc31)CCC2 | 78.7 |
| O=C(OCC1O[C@@H](OC(=O)c2cc(O)c(O)c(O)c2)[C@@H](OC(=O)c2cc(O)c(O)c(O)c2)[C@@H](OC(=O)c2cc(O)c(O)c(O)c2)[C@@H]1OC(=O)c1cc(O)c(O)c(O)c1)c1cc(O)c(O)c(O)c1 (stereo partly specified) | 83.1 |
| Cc1nc(NC(=O)c2ccccc2)sc1-c1csc(Nc2ccc(F)cc2)n1 | 86.4 |
| Oc1ccccc1NCC(O)Cn1ccc2ccccc21 (stereo unspecified) | 130 |
| O=C1c2ccccc2NC(c2ccc(-c3ccc(Br)cc3)o2)N1O (stereo unspecified) | 53 |
| O=[N+]([O-])c1ccc(-c2ccn[nH]2)o1 | 33.7 |
| CCn1cc(C(=O)O)c(=O)c2cc(F)c(N3CCN(C(=S)NC(=O)c4ccccc4F)CC3)cc21 | 79.4 |
| Cc1scc(C(=O)N/N=C/c2ccc([N+](=O)[O-])o2)c1C | 68.7 |
| Nc1ncncc1-c1ccc([N+](=O)[O-])cc1 | 136 |
| O=C(Nc1ccccc1)Oc1ccc[nH]c1=O | 80.6 |
| CCOC(=O)C[n+]1c(C)sc2ccc(OC)cc21 | 133 |
